# Literature values as cited in article PMC2593936 (Bioorganic & medicinal chemistry, 2008).
# Marks after values point to notes of the source that are not given here.
# Biological target: T1, human A3AR (Homo sapiens, UniProt P0DMS8)
# T1 sequence (P0DMS8 1-318): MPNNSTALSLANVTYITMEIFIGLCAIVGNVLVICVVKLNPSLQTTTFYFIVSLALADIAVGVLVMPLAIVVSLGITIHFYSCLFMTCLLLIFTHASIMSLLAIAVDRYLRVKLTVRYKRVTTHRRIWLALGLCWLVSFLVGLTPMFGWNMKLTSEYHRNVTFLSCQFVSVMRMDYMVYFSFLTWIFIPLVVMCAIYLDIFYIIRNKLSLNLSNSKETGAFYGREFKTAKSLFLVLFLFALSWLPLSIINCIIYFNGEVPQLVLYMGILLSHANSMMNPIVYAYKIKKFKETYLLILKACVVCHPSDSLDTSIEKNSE
# Conditions: relative to full agonist NECA at 10 μM
structure (smiles),measurement,value
CNC(=O)[C@@]12C[C@@H]1[C@@H](n1cnc3c(NCc4cccc(I)c4)nc(Cl)nc31)[C@H](O)[C@@H]2O [Compound 7],%Efficacy A3,100 ^c %
